What follows are molecules tested on PC3 cells (assay: NAMPT Cell Proliferation Assay). Conditions: Homo sapiens, PC-3, 120 h, 5 days incubation, cell viability by Cell Titer Glo.
Assay type: cell-based
Method in brief: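 Five-day CellTiter-Glo viability readout in PC3 cells grown in RPMI/10% heat-inactivated FBS. Compounds added after overnight attachment as a 10-fold dilution series, […]. Percent inhibition fitted to sigmoidal dose-response to derive IC50.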

| Compound | IC50 [nM] |
| --- | --- |
| O=C(Nc1ccc(S(=O)(=O)C2CCN(C(=O)c3cccc(F)c3)CC2)cc1)C1CN(c2cccnn2)C1 [Example 583, N-(4-{[1-(3-fluorobenzoyl)piperidin-4-yl]sulfonyl}phenyl)-1-(pyridazin-3-yl)azetidine-3-carboxamide] | 87.4 |
| O=C(Nc1ccc(S(=O)(=O)C2CCN(C(=O)c3cccc(C(F)(F)F)c3)CC2)cc1)C1CN(c2cccnn2)C1 [Example 584, 1-(pyridazin-3-yl)-N-[4-({1-[3-(trifluoromethyl)benzoyl]piperidin-4-yl}sulfonyl)phenyl]azetidine-3-carboxamide] | 87.2 |
| O=C(Nc1ccc(S(=O)(=O)C2CCN(C(=O)Cc3cc(F)cc(F)c3)CC2)cc1)C1CN(c2cccnn2)C1 [Example 585, N-[4-({1-[(3,5-difluorophenyl)acetyl]piperidin-4-yl}sulfonyl)phenyl]-1-(pyridazin-3-yl)azetidine-3-carboxamide] | 283 |
| O=C(Nc1ccc(S(=O)(=O)C2CCN(C(=O)c3ccc(F)cc3F)CC2)cc1)C1CN(c2cccnn2)C1 [Example 586, N-(4-{[1-(2,4-difluorobenzoyl)piperidin-4-yl]sulfonyl}phenyl)-1-(pyridazin-3-yl)azetidine-3-carboxamide] | 107 |
| O=C(Nc1ccc(S(=O)(=O)C2CCN(C(=O)c3ccc(C(F)(F)F)cc3)CC2)cc1)C1CN(c2cccnn2)C1 [Example 587, 1-(pyridazin-3-yl)-N-[4-({1-[4-(trifluoromethyl)benzoyl]piperidin-4-yl}sulfonyl)phenyl]azetidine-3-carboxamide] | 81.4 |
| O=C(Nc1ccc(S(=O)(=O)C2CCN(C(=O)c3ccc(F)cc3)CC2)cc1)C1CN(c2cccnn2)C1 [Example 588, N-(4-{[1-(4-fluorobenzoyl)piperidin-4-yl]sulfonyl}phenyl)-1-(pyridazin-3-yl)azetidine-3-carboxamide] | 113 |
| O=C(Nc1ccc(S(=O)(=O)C2CCN(C(=O)c3cccc(F)c3F)CC2)cc1)C1CN(c2cccnn2)C1 [Example 589, N-(4-{[1-(2,3-difluorobenzoyl)piperidin-4-yl]sulfonyl}phenyl)-1-(pyridazin-3-yl)azetidine-3-carboxamide] | 97.9 |
| O=C(Nc1ccc(S(=O)(=O)C2CCN(C(=O)c3ccc(Cl)cc3Cl)CC2)cc1)C1CN(c2cccnn2)C1 [Example 590, N-(4-{[1-(2,4-dichlorobenzoyl)piperidin-4-yl]sulfonyl}phenyl)-1-(pyridazin-3-yl)azetidine-3-carboxamide] | 82.2 |
| O=C(Nc1ccc(S(=O)(=O)C2CCN(C(=O)c3cccc4ccccc34)CC2)cc1)C1CN(c2cccnn2)C1 [Example 591, N-(4-{[1-(naphthalen-1-ylcarbonyl)piperidin-4-yl]sulfonyl}phenyl)-1-(pyridazin-3-yl)azetidine-3-carboxamide] | 93.6 |
| O=C(Nc1ccc(S(=O)(=O)C2CCN(C(=O)C3CC3)CC2)cc1)C1CN(c2cccnn2)C1 [Example 592, N-(4-{[1-(cyclopropylcarbonyl)piperidin-4-yl]sulfonyl}phenyl)-1-(pyridazin-3-yl)azetidine-3-carboxamide] | 620 |
| O=C(Nc1ccc(S(=O)(=O)C2CCN(C(=O)c3cc(F)cc(F)c3)CC2)cc1)C1CN(c2cccnn2)C1 [Example 593, N-(4-{[1-(3,5-difluorobenzoyl)piperidin-4-yl]sulfonyl}phenyl)-1-(pyridazin-3-yl)azetidine-3-carboxamide] | 63.4 |
| CC(C)(C)C(=O)N1CCC(S(=O)(=O)c2ccc(NC(=O)C3CN(c4cccnn4)C3)cc2)CC1 [Example 594, N-(4-{[1-(2,2-dimethylpropanoyl)piperidin-4-yl]sulfonyl}phenyl)-1-(pyridazin-3-yl)azetidine-3-carboxamide] | 47.8 |
| CC(C)(C)CC(=O)N1CCC(S(=O)(=O)c2ccc(NC(=O)C3CN(c4cccnn4)C3)cc2)CC1 [Example 595, N-(4-{[1-(3,3-dimethylbutanoyl)piperidin-4-yl]sulfonyl}phenyl)-1-(pyridazin-3-yl)azetidine-3-carboxamide] | 80.6 |
| COc1cccc(C(=O)N2CCC(S(=O)(=O)c3ccc(NC(=O)C4CN(c5cccnn5)C4)cc3)CC2)c1 [Example 596, N-(4-{[1-(3-methoxybenzoyl)piperidin-4-yl]sulfonyl}phenyl)-1-(pyridazin-3-yl)azetidine-3-carboxamide] | 84.6 |
| CC(C)CC(=O)N1CCC(S(=O)(=O)c2ccc(NC(=O)C3CN(c4cccnn4)C3)cc2)CC1 [Example 597, N-(4-{[1-(3-methylbutanoyl)piperidin-4-yl]sulfonyl}phenyl)-1-(pyridazin-3-yl)azetidine-3-carboxamide] | 117 |
| CC(C)C(=O)N1CCC(S(=O)(=O)c2ccc(NC(=O)C3CN(c4cccnn4)C3)cc2)CC1 [Example 598, N-(4-{[1-(2-methylpropanoyl)piperidin-4-yl]sulfonyl}phenyl)-1-(pyridazin-3-yl)azetidine-3-carboxamide] | 208 |
| O=C(Nc1ccc(S(=O)(=O)C2CCN(C(=O)C3CCCC3)CC2)cc1)C1CN(c2cccnn2)C1 [Example 599, N-(4-{[1-(cyclopentylcarbonyl)piperidin-4-yl]sulfonyl}phenyl)-1-(pyridazin-3-yl)azetidine-3-carboxamide] | 79.7 |
| O=C(Nc1ccc(S(=O)(=O)C2CCN(C(=O)Cc3ccccc3)CC2)cc1)C1CN(c2cccnn2)C1 [Example 600, N-(4-{[1-(phenylacetyl)piperidin-4-yl]sulfonyl}phenyl)-1-(pyridazin-3-yl)azetidine-3-carboxamide] | 219 |
| O=C(Nc1ccc(S(=O)(=O)C2CCN(C(=O)C3(c4ccccc4)CC3)CC2)cc1)C1CN(c2cccnn2)C1 [Example 601, N-[4-({1-[(1-phenylcyclopropyl)carbonyl]piperidin-4-yl}sulfonyl)phenyl]-1-(pyridazin-3-yl)azetidine-3-carboxamide] | 96.8 |
| CC(C)(N)C(=O)N1CCC(c2ccc(NC(=O)C3CN(c4cccnc4)C3)cc2)CC1 [Example 602, N-{4-[1-(2-methylalanyl)piperidin-4-yl]phenyl}-1-(pyridin-3-yl)azetidine-3-carboxamide] | 2 |

Results, then the molecule that gave them:

| IC50 [nM] | Compound |
| --- | --- |
| 576 | CC(C)Cn1cc(-c2ccc(C(=O)N[C@@H]3CCN(c4cccnc4)C3)s2)cn1 [Example 603, 5-[1-(2-methylpropyl)-1H-pyrazol-4-yl]-N-[(3R)-1-(pyridin-3-yl)pyrrolidin-3-yl]thiophene-2-carboxamide] |
| 8260 | CC(C)Cn1cc(-c2ccc(C(=O)N[C@@H]3CCN(c4ccnnc4)C3)s2)cn1 [Example 604, 5-[1-(2-methylpropyl)-1H-pyrazol-4-yl]-N-[(3R)-1-(pyridazin-4-yl)pyrrolidin-3-yl]thiophene-2-carboxamide] |
| 1400 | CC(C)Cn1cc(-c2ccc(C(=O)N[C@@H]3CCN(c4cccnn4)C3)s2)cn1 [Example 605, 5-[1-(2-methylpropyl)-1H-pyrazol-4-yl]N-[(3R)-1-(pyridazin-3-yl)pyrrolidin-3-yl]thiophene-2-carboxamide] |
| 86.7 | CC(C)Cn1cc(-c2ccc(C(=O)N[C@H]3CCN(c4cccnn4)C3)s2)cn1 [Example 606, 5-[1-(2-methylpropyl)-1H-pyrazol-4-yl]-N-[(3S)-1-(pyridazin-3-yl)pyrrolidin-3-yl]thiophene-2-carboxamide] |
| 7650 | CC(C)Cn1cc(-c2ccc(C(=O)N[C@H]3CCN(c4ccnnc4)C3)s2)cn1 [Example 607, 5-[1-(2-methylpropyl)-1H-pyrazol-4-yl]-N-[(3S)-1-(pyridazin-4-yl)pyrrolidin-3-yl]thiophene-2-carboxamide] |
| 712 | CC(C)Cn1cc(-c2ccc(C(=O)N[C@H]3CCN(c4cccnc4)C3)s2)cn1 [Example 608, 5-[1-(2-methylpropyl)-1H-pyrazol-4-yl]-N-[(3S)-1-(pyridin-3-yl)pyrrolidin-3-yl]thiophene-2-carboxamide] |
| 2.05 | CC(C)(C)OC(=O)N1CCN(C(C)(C)C(=O)N2CCC(c3ccc(NC(=O)C4CN(c5cccnc5)C4)cc3)CC2)CC1 [Example 609, tert-butyl 4-(2-methyl-1-oxo-1-{4-[4-({[1-(pyridin-3-yl)azetidin-3-yl]carbonyl}amino)phenyl]piperidin-1-yl}propan-2-yl)piperazine-1-carboxylate] |
| 7.9 | CC(C)(C(=O)N1CCC(c2ccc(NC(=O)C3CN(c4cccnc4)C3)cc2)CC1)N1CCNCC1 [Example 610, N-(4-{1-[2-methyl-2-(piperazin-1-yl)propanoyl]piperidin-4-yl}phenyl)-1-(pyridin-3-yl)azetidine-3-carboxamide] |
| 90 | O=C(Nc1ccc(S(=O)(=O)C2CCN(C(=O)c3ccccc3Cl)CC2)cc1)C1CN(c2cccnn2)C1 [Example 611, N-(4-{[1-(2-chlorobenzoyl)piperidin-4-yl]sulfonyl}phenyl)-1-(pyridazin-3-yl)azetidine-3-carboxamide] |
| 53.6 | CC(C)CCC(=O)N1CCC(S(=O)(=O)c2ccc(NC(=O)C3CN(c4cccnn4)C3)cc2)CC1 [Example 612, N-(4-{[1-(4-methylpentanoyl)piperidin-4-yl]sulfonyl}phenyl)-1-(pyridazin-3-yl)azetidine-3-carboxamide] |
| 707 | O=C(Nc1ccc(S(=O)(=O)C2CCN(C(=O)Cc3ccccc3F)CC2)cc1)C1CN(c2cccnn2)C1 [Example 613, N-[4-({1-[(2-fluorophenyl)acetyl]piperidin-4-yl}sulfonyl)phenyl]-1-(pyridazin-3-yl)azetidine-3-carboxamide] |
| 7660 | CC(C)C(=O)N1CCC(S(=O)(=O)c2ccc(NC(=O)C3CN(c4ccnnc4)C3)cc2)CC1 [Example 614, N-(4-{[1-(2-methylpropanoyl)piperidin-4-yl]sulfonyl}phenyl)-1-(pyridazin-4-yl)azetidine-3-carboxamide] |
| 6150 | O=C(Nc1ccc(S(=O)(=O)C2CCN(C(=O)c3ccccc3)CC2)cc1)C1CN(c2ccnnc2)C1 [Example 615, N-{4-[(1-benzoylpiperidin-4-yl)sulfonyl]phenyl}-1-(pyridazin-4-yl)azetidine-3-carboxamide] |

— patent US20130303509A1, “NAMPT INHIBITORS” (AbbVie Inc., priority 2012, published 2013)
